# Legend:
# Format in all cases: in vivo
# male ICR mouse [1] = assay: Head twitch potentiation induced by 5-HTP (5-HTP potentiation test) in mouse; conditions: po, 0.5 h, p.o, 5-HTP 80 mg/kg + Carbidopa 25 mg/kg i.p. 30 minutes after dosing, head twitches counted for 2 minutes, negative = 5-HT2A antagonist, read-out: 5-HTP Potentiation Increase rate in Head Twitch No.
# How it was run: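 Male ICR mice (20-25 g) dosed orally at 30 mg/kg; 30 min later given 5-HTP (80 mg/kg) plus carbidopa (25 mg/kg) i.p. Head twitches counted for 2 min starting 30 min after i.p. dosing; effect expressed as % increase in twitch number versus vehicle group.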
# male ICR mouse [2] = assay: Elevated plus maze (EPM) test in mouse; conditions: po, p.o, 1 hour after dosing, 5 minutes observation, read-out: Elevated Plus Maze Change index in Open-Arm Time
# How it was run: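 Male ICR mice (20–25 g) received test material orally at 10 mg/kg, and open-arm time on the maze was recorded over 5 min starting 1 h after dosing. Value is the change index in open-arm time: (treated − vehicle)/vehicle × 100%.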
# male ICR mouse [3] = assay: Hot plate test in mouse; conditions: po, p.o, 1 hour after dosing, hot plate 55° C., read-out: Hot Plate Test Increase in latency of avoidance response
# How it was run: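 Male ICR mice (25–30 g) dosed orally at 30 mg/kg and placed on a 55° C. hot plate 1 h later. Latency to forefoot or hind-leg avoidance (flinching, licking, jumping) recorded; effect expressed as % increase in latency over vehicle group.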
# male ICR mouse [4] = assay: Acetic acid-induced writhing test in mouse; conditions: po, p.o, acetic acid i.p. 1 hour after dosing, writhing counted for 10 minutes, read-out: Writhing Test Suppression of pain response
# How it was run: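 Test material given orally at 10 mg/kg to male mice (30–35 g); 1 h later 0.8% acetic acid injected i.p. Writhes counted over 10 min immediately afterwards; analgesia expressed as percent suppression of writhing versus vehicle group.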
smiles,measurement,setting,value
"NC(=O)OC(CC(=O)N1CCN(c2cnc3ccccc3n2)CC1)c1ccccc1 (centres unmarked) [Example 22, carbamic acid 3-oxo-1-phenyl-3-(4-quinoxalin-2-yl-piperazin-1-yl)-propyl ester]",change in vivo at 30 mg/kg,male ICR mouse [1],3.9%
same,change in vivo at 10 mg/kg,male ICR mouse [2],-21.2%
same,change in vivo at 30 mg/kg,male ICR mouse [3],38%
same,inhibition in vivo at 10 mg/kg,male ICR mouse [4],29.4%
"NC(=O)OC(CC(=O)N1CCN(CCc2ccc(Cl)c(Cl)c2)CC1)c1ccccc1 (centres unmarked) [Example 39, carbamic acid 3-{4-[2-(3,4-dichloro-phenyl)-ethyl]-piperazin-1-yl}-3-oxo-1-phenyl-propyl ester]",change in vivo at 30 mg/kg,male ICR mouse [1],319%
same,change in vivo at 10 mg/kg,male ICR mouse [2],57.8%
same,change in vivo at 30 mg/kg,male ICR mouse [3],18.7%
same,inhibition in vivo at 10 mg/kg,male ICR mouse [4],23.2%
"Cc1cccc(C(CC(=O)N2CCN(c3ccccc3)CC2)OC(N)=O)c1 (centres unmarked) [Example 50, carbamic acid 1-(3-methyl-phenyl)-3-oxo-3-(4-phenyl-piperazin-1-yl)-propyl ester]",change in vivo at 30 mg/kg,male ICR mouse [1],-21.3%
same,change in vivo at 10 mg/kg,male ICR mouse [2],65.4%
same,change in vivo at 30 mg/kg,male ICR mouse [3],31.3%
same,inhibition in vivo at 10 mg/kg,male ICR mouse [4],15%
"NC(=O)OC(CC(=O)N1CCN(C(c2ccc(F)cc2)c2ccc(F)cc2)CC1)c1ccccc1 (centres unmarked) [Example 21, carbamic acid 3-{4-[bis-(4-fluoro-phenyl)-methyl]-piperazin-1-yl}-3-oxo-1-phenyl-propyl ester]",change in vivo at 30 mg/kg,male ICR mouse [1],-7%
same,change in vivo at 10 mg/kg,male ICR mouse [2],67.5%
same,change in vivo at 30 mg/kg,male ICR mouse [3],51.4%
same,inhibition in vivo at 10 mg/kg,male ICR mouse [4],32.5%
"COc1ccc(N2CCN(C(=O)C[C@@H](OC(N)=O)c3ccccc3)CC2)cc1OC [Example 71, (R)-carbamic acid 3-[4-(3,4-dimethoxy-phenyl)-piperazin-1-yl]-3-oxo-1-phenyl-propyl ester]",change in vivo at 30 mg/kg,male ICR mouse [1],127%
same,change in vivo at 10 mg/kg,male ICR mouse [2],125%
same,change in vivo at 30 mg/kg,male ICR mouse [3],55.8%
same,inhibition in vivo at 10 mg/kg,male ICR mouse [4],46.5%
"CC(C)(C)c1ccc(N2CCN(C(=O)CC(OC(N)=O)c3ccccc3)CC2)cc1 (centres unmarked) [Example 17, carbamic acid 3-[4-(4-tert-butyl-phenyl)-piperazin-1-yl]-3-oxo-1-phenyl-propyl ester]",change in vivo at 30 mg/kg,male ICR mouse [1],10%
same,change in vivo at 10 mg/kg,male ICR mouse [2],34%
same,change in vivo at 30 mg/kg,male ICR mouse [3],29.4%
same,inhibition in vivo at 10 mg/kg,male ICR mouse [4],25.3%
"NC(=O)OC(CC(=O)N1CCN(c2cccc(Cl)c2Cl)CC1)c1ccccc1 (centres unmarked) [Example 12, carbamic acid 3-[4-(2,3-dichloro-phenyl)-piperazin-1-yl]-3-oxo-1-phenyl-propyl ester]",change in vivo at 30 mg/kg,male ICR mouse [1],10%
same,change in vivo at 10 mg/kg,male ICR mouse [2],41.1%
same,change in vivo at 30 mg/kg,male ICR mouse [3],46.8%
same,inhibition in vivo at 10 mg/kg,male ICR mouse [4],37%
"NC(=O)OC(CC(=O)N1CCN(c2ccc(Cl)c(Cl)c2)CC1)c1ccccc1 (centres unmarked) [Example 3, carbamic acid 3-[4-(3,4-dichloro-phenyl)-piperazin-1-yl]-3-oxo-1-phenyl-propyl ester]",change in vivo at 30 mg/kg,male ICR mouse [1],54.5%
same,change in vivo at 10 mg/kg,male ICR mouse [2],9.7%
same,change in vivo at 30 mg/kg,male ICR mouse [3],38.5%
same,inhibition in vivo at 10 mg/kg,male ICR mouse [4],65%
"NC(=O)OC(CCC(=O)N1CCN(c2ccc(Cl)c(Cl)c2)CC1)c1ccccc1 (centres unmarked) [Example 40, carbamic acid 4-[4-(3,4-dichloro-phenyl)-piperazin-1-yl]-4-oxo-1-phenyl-butyl ester]",change in vivo at 30 mg/kg,male ICR mouse [1],311%
same,change in vivo at 10 mg/kg,male ICR mouse [2],68.8%
same,change in vivo at 30 mg/kg,male ICR mouse [3],27.8%
same,inhibition in vivo at 10 mg/kg,male ICR mouse [4],11.1%
"NC(=O)OC(CC(=O)N1CCN(c2ccccc2)CC1)c1ccc([N+](=O)[O-])cc1 (centres unmarked) [Example 34, carbamic acid 1-(4-nitro-phenyl)-3-oxo-3-(4-phenyl-piperazin-1-yl)-propyl ester]",change in vivo at 30 mg/kg,male ICR mouse [1],2.9%
same,change in vivo at 10 mg/kg,male ICR mouse [2],6.5%
same,change in vivo at 30 mg/kg,male ICR mouse [3],0.6%
same,inhibition in vivo at 10 mg/kg,male ICR mouse [4],38.4%
"NC(=O)OC(CC(=O)N1CCN(c2ccccc2)CC1)c1cccc(Br)c1 (centres unmarked) [Example 46, carbamic acid 1-(3-bromo-phenyl)-3-oxo-3-(4-phenyl-piperazin-1-yl)-propyl ester]",change in vivo at 30 mg/kg,male ICR mouse [1],40.3%
same,change in vivo at 10 mg/kg,male ICR mouse [2],5.7%
same,change in vivo at 30 mg/kg,male ICR mouse [3],33.1%
same,inhibition in vivo at 10 mg/kg,male ICR mouse [4],71.3%
